The results in this text go back to patent US7323609B2, “Corrosion and gas hydrate inhibitors having improved water solubility and increased biodegradability” (Clariant Produkte (Deutschland) GmbH, priority 2003, dated 2008).

Experiment [1] can be described thus: Shell wheel test (corrosion inhibition). Conditions: 50 ppm of a 40% inhibitor solution; salt water/petroleum, pH 3.5, 40 rpm, 70° C., 24 hours; from mass reduction vs blank. The procedure:
The compounds according to the invention were tested as corrosion inhibitors in the Shell wheel test. Coupons of carbon steel (DIN 1.1203 having 15 cm^2 surface area) were immersed in a salt water/petroleum mixture (9:1.5% NaCl solution, adjusted to pH 3.5 using acetic acid) and subjected to this medium at a rotation rate of 40 rpm at 70° C. for 24 hours. The dosage of the inhibitor was 50 ppm of a 40% solution of the inhibitor. The protection values were calculated from the mass reduction of the coupons, based on a blank value.
In the table which follows, “comparison 1” refers to a commercial residue amine, quat based on dicocoalkyldimethylammonium chloride and “comparison 2” to a commercial soya fatty acid amidopropyl-N,N-dimethylammonium carboxymethyl betaine described by EP-B-0 446 616 (prior art corrosion inhibitors).

A short description of experiment [2]: LPR test (corrosion inhibition, conditions similar to ASTM D 2776). Also on record: concentration or dose not given beside the values. On the procedure:
The products were also tested in the LPR test (test conditions similar to ASTM D 2776).

In the case of “C14/15-oxo alcohol+7 EO-ether carboxamido-N,N-dimethylamino-N-propylammonium N-methylcarboxyl betaine [Example 34]”, the “ø Protection %” value in experiment [1] amounted to 71.9%.
With “lauryl+3 EO-ether carboxamido-N,N-dimethylamino-N-propylammonium N-methylcarboxyl betaine [Example 35]”, in experiment [1], the “ø Protection %” value turned out to be 75.9%. Also, in experiment [2], the “Protection after 10 min” value stood at 74.4%, the “Protection after 30 min” value is 80.2% and the “Protection after 60 min” value is on record as 84.3%.
Taken in the same sequence, the figures for “oleyl+5 EO-ether carboxamido-N,N-dimethylamino-N-propylammonium N-methylcarboxyl betaine [Example 33]” were 70.7%, 75.6%, 80.3% and 82.8%.
